Assay [1] deals with metabolites known to be modified by intestinal microbiota. Put plainly: Metabolomic mass spec analysis of blood metabolites. Format: in vivo, rat. Conditions: rats treated for 7 days. From the text:
In this example, methods for assaying metabolite levels using mass spectrometry are described. Each sample received was accessioned into the Metabolon Laboratory Information Management System (LIMS) and was assigned by the LIMS a unique identifier, which was associated with the original source identifier only. This identifier was used to track all sample handling, tasks, results etc. The samples (and all derived aliquots) were bar-coded and tracked by the LIMS system. All portions of any sample were automatically assigned their own unique identifiers by the LIMS when a new task was created; the relationship of these samples was also tracked. All samples were maintained at −80° C. until processed.
The sample preparation process was carried out using the automated MicroLab STAR® system from Hamilton Company. Recovery standards were added prior to the first step in the extraction process for Quality Control (QC) purposes. […]
The LC/MS portion of the platform was based on a Waters ACQUITY UPLC and a Thermo-Finnigan LTQ mass spectrometer, which consisted of an electrospray ionization (ESI) source and linear ion-trap (LIT) mass analyzer. […] One aliquot was analyzed using acidic positive ion optimized conditions and the other using basic negative ion optimized conditions in two independent injections using separate dedicated columns. […]

In the next assay the test system is rats. Nature of the assay: Myocardial ischemia/reperfusion by the protocol of example 3 (model not given). Conditions: antibiotics in drinking water. In kind it is in vivo, rat. The source says: In the following example, methods for assaying myocardial infarction in vitro and in vivo in rats as determined by ischemia/reperfusion studies are described.
An anesthetized rat model was used for in vivo ischemia/reperfusion studies using the general surgical protocol and determination of infarct size (IS) described in “K(ATP) opener-induced delayed cardioprotection: involvement of sarcolemmal and mitochondrial K(ATP) channels, free radicals and MEK½” (Gross, E. et al., J. Mol. Cell. Cardiol. 35, 985-992, 2003), the entirety of which is incorporated herein by reference. Briefly, following anesthesia, a tracheotomy for artificial ventilation was performed, with the left common carotid artery cannulated for blood pressure and heart rate measurements. A thoracotomy was performed at the fifth intercostal space, the pericardium was excised, and a silk ligature was placed distal to the left atrial appendage that spanned to the sternal portion of the left ventricle, which included the left anterior descending coronary artery. Occlusion of the area described [area at risk (AAR)] was created by placing ends of the ligature through a polypropylene tube and fixing the snare to the epicardial surface with a hemostat. After 30 min, the hemostat was released to reperfuse the AAR. Following 2 h of reperfusion, the ligature was again occluded, and the AAR was determined by patent-blue negative staining. The heart was then excised, cross-sectioned into 4 to 5 slices, and separated into normal zone and AAR. Pieces were incubated in 1% 2,3,5-triphenyltetrazolium chloride to determine IS. The heart was then incubated overnight in 10% formaldehyde, and infarcted tissue was dissected from the AAR. IS was expressed as a percentage of the AAR (IS/AAR). Leptin (0.12 μg/kg) was administered intravenously as a bolus at 24 and 12 h before ischemia. Amino acids were administered intravenously as a bolus at 24 and 12 hours before ischemia or dissolved in the drinking water and given 48 hours before ischemia.
For in vitro ischemia/reperfusion studies, hearts were perfused retrogradely, as described previously in Baker, J. et al. (Am. J. Physiol. Heart Circ. Physiol., 2000), the entirety of which is incorporated herein by reference. Briefly, hearts were perfused with modified Krebs-Henseleit buffer (120 mM NaCl, 25 mM NaHCO3, 4.7 mM KCl, 1.2 mM KH2PO4, 1.20 mM MgSO4, 11 mM glucose, and 1.8 mM CaCl2) bubbled with 95% O2-5% CO2 for a 40-minute stabilization period and subjected to 25 minutes of global no-flow ischemia, followed by 180 minutes of reperfusion. Before use, all perfusion fluids were filtered through cellulose acetate membranes with a pore size of 5.0 μm to remove particulate matter. Hearts were kept in temperature-controlled chambers to maintain myocardial temperature at 37° C. A balloon connected to a pressure transducer was inserted into the left ventricle to monitor cardiac function. For some experiments, hearts were stabilized for 25 minutes and then perfused with vancomycin or a mixture of antibiotics for 15 minutes before ischemia/reperfusion. During the initial 40 minute reperfusion period, recovery of mechanical function was measured as left ventricular developed pressure (LVDP) under steady-state conditions and expressed as a percentage of preischemic LVDP. At the end of the 3 hour reperfusion period, hearts were processed and stained with 2,3,5-triphenyltetrazolium chloride dye for IS determination.

One molecule from US20130052172A1, “METHODS FOR DIAGNOSING AND TREATING CARDIAC DEFECTS” (priority 2011, published 2013) can be followed below.

For the molecule `CN[C@H](CC(C)C)C(=O)N[C@H]1C(=O)N[C@@H](CC(N)=O)C(=O)N[C@H]2C(=O)N[C@H]3C(=O)N[C@H](C(=O)N[C@H](C(=O)O)c4cc(O)cc(O)c4-c4cc3ccc4O)[C@H](O)c3ccc(c(Cl)c3)Oc3cc2cc(c3O[C@@H]2O[C@H](CO)[C@@H](O)[C@H](O)[C@H]2O[C@H]2C[C@](C)(N)[C@H](O)[C@H](C)O2)Oc2ccc(cc2Cl)[C@H]1O` [vancomycin, Vancomycin], the “metabolites of tryptophan, phenylalanine and tyrosine in blood” value in assay [1] is listed as “decreased metabolites known to be modified by intestinal microbiota”. Moreover, the phenyllactate in blood result in assay [1] is on record as “increased”. Besides, the entries for the “response of susceptibility to ischemia/reperfusion injury” value with rats (Dahl S rats), in the assay with rats (Sprague Dawley rats) and with rats (WAG/RijCmcr rats) were “sensitive”, “intermediate response” and “resistant”, respectively.
